We go through 31 compounds from patent publication US20240067639A1, “SMALL MOLECULES THAT TARGET THE RNA THAT CAUSES ALS” (EXPANSION THERAPEUTICS, INC., priority 2020, published 2024).

The subject of test [1] is RAN translation of (G4C2)66-No ATG-GFP in HEK293T cells. Description: Cell-based assay of RAN translation inhibition (GFP/mCherry reporter). Conditions: Homo sapiens, HEK-293T, read-out: RANT IC50.
For test [2], the target named is Biotin-labeled RNA (target RNA). Briefly: BLI affinity measurement (ForteBio Octet RED384). It is filed as binding. To be noted: Table G. In general terms: In BLI a coated tip is dipped into the sample, and binding shifts an interference pattern.
The subject of test [3] is cultured cells and induced neurons. Conditions: cited from earlier work.
The subject of test [4] is r(G4C2)^exp. Conditions: background statement; cited from earlier work.

Where two headings read alike, the source gives them in different places.

The term IC50 denotes the concentration that inhibits the measured activity by half. For orientation: Kd means the constant that tells how readily two partners part at equilibrium.

With `Cc1c2ccncc2cc2c3cc(C(=O)N[C@@H](C)CN)ccc3n(C)c12` [Compound 281, (S)—N-(1-aminopropan-2-yl)-5,6-dimethyl-6H-pyrido[4,3-b]carbazole-9-carboxamide], in test [1] (Table G, HEK293T), the IC50 was 17 µM. For the same compound, in test [2], the Kd was determined as 460 nM.
Turning to `Cc1c2ccncc2cc2c3cc(Oc4cccnc4)ccc3n(C)c12` [Compound 311, 5,6-dimethyl-9-(pyridin-3-yloxy)-6H-pyrido[4,3-b]carbazole], the IC50 in test [1] stood at 20 µM. In test [2], this compound gave a Kd of 2300 nM.
With `Cc1c2cc[n+](CCN3CCCCC3)cc2c(C)c2c1[nH]c1ccc(O)cc12` [Compound 1a], the “inhibition of RAN translation and foci formation” value in test [3] was “inhibits RAN translation and foci formation”. Also, the “binding to r(G4C2)exp” value in test [4] was “binds”.
With `CN[C@@H](C)COc1ccc2c(c1)c1cc3cnccc3c(C)c1n2C` [Compound 276, (S)-1-((5,6-dimethyl-6H-pyrido[4,3-b]carbazol-9-yl)oxy)-N-methylpropan-2-amine], the IC50 in test [1] (Table G, HEK293T) is 12 µM. The compound further showed an equilibrium dissociation constant (Kd) in test [2] of 41 nM.
With `Cc1c2ccnc(C(=O)N[C@H](C)CN(C)C)c2cc2c3ccccc3n(C)c12` [Compound 292, (R)—N-(1-(dimethylamino)propan-2-yl)-5,6-dimethyl-6H-pyrido[4,3-b]carbazole-1-carboxamide], in test [1], the IC50 amounted to 13 µM. In test [2], this compound registered a dissociation constant (Kd) of 5500 nM.
Consider `Cc1c2ccncc2cc2c3cc(C(=O)NCC(N)=O)ccc3n(C)c12` [Compound 296, N-(2-amino-2-oxoethyl)-5,6-dimethyl-6H-pyrido[4,3-b]carbazole-9-carboxamide], for which the half-inhibitory concentration (IC50) in test [1] (Table G, HEK293T) is 3 µM. Also, the affinity in test [2], expressed as Kd, was 5300 nM.
Regarding `COc1ccc2c(c1)c1cc3cnccc3c(C)c1n2CCN1CCCCC1` [Compound 316, 9-methoxy-5-methyl-6-(2-(piperidin-1-yl)ethyl)-6H-pyrido[4,3-b]carbazole], in test [1], the half-inhibitory concentration (IC50) is 10 µM. The same compound displayed a Kd in test [2] of 3400 nM.
With `Cc1c2ccncc2cc2c3cc(Oc4ccncc4)ccc3n(C)c12` [Compound 306, 5,6-dimethyl-9-(pyridin-4-yloxy)-6H-pyrido[4,3-b]carbazole], the 50% inhibitory concentration (IC50) in test [1] (Table G, HEK293T) was found to be 14 µM. In test [2], this compound came in with a Kd of 1200 nM.
Regarding `Cc1c2ccncc2cc2c3cc(C(=O)N[C@H](C)C(N)=O)ccc3n(C)c12` [Compound 298, (R)—N-(1-amino-1-oxopropan-2-yl)-5,6-dimethyl-6H-pyrido[4,3-b]carbazole-9-carboxamide], the IC50 in test [1] (Table G, HEK293T) came to 1.4 µM. The compound also came in with a Kd in test [2] of 6600 nM.
Consider `Cc1c2ccncc2cc2c3cc(C(=O)NC[C@H](C)N)ccc3n(C)c12` [Compound 280, (S)—N-(2-aminopropyl)-5,6-dimethyl-6H-pyrido[4,3-b]carbazole-9-carboxamide], for which the IC50 in test [1] (Table G, HEK293T) was determined as 35 µM. In test [2], binding was put at a Kd of 880 nM.
On to `Cc1c2ccnc(C(=O)NCCN)c2cc2c3cc(F)ccc3n(C)c12` [Compound 308, N-(2-aminoethyl)-9-fluoro-5,6-dimethyl-6H-pyrido[4,3-b]carbazole-1-carboxamide], for which the IC50 in test [1] (Table G, HEK293T) was > 100 µM. Further, in test [2], the equilibrium dissociation constant (Kd) came out at 560 nM.
Turning to `Cc1c2ccnc(C(=O)NCC(N)=O)c2cc2c3ccccc3n(C)c12` [Compound 290, N-(2-amino-2-oxoethyl)-5,6-dimethyl-6H-pyrido[4,3-b]carbazole-1-carboxamide], the IC50 in test [1] (Table G, HEK293T) worked out at 8.3 µM. Further, the dissociation constant (Kd) in test [2] is > 20000 nM.
On to `Cc1c2ccncc2cc2c3cc(C(=O)NC[C@@H](C)O)ccc3n(C)c12` [Compound 285, (R)—N-(2-hydroxypropyl)-5,6-dimethyl-6H-pyrido[4,3-b]carbazole-9-carboxamide], for which the concentration for half-maximal inhibition (IC50) in test [1] (Table G, HEK293T) worked out at 0.9 µM. Further, the equilibrium dissociation constant (Kd) in test [2] was 120 nM.
As for `Cc1c2ccncc2cc2c3cc(C(=O)N[C@H](C)CN)ccc3n(C)c12` [Compound 282, N-[(1R)-2-amino-1-methyl-ethyl]-5,6-dimethyl-pyrido[4,3-b] carbazole-9-carboxamide], the IC50 in test [1] (Table G, HEK293T) is 0.67 µM. In test [2], this compound registered a dissociation constant Kd of 140 nM.
As to `Cc1c2ccncc2cc2c3ccccc3n(CCN(C)C)c12` [Compound 312, N,N-dimethyl-2-(5-methyl-6H-pyrido[4,3-b]carbazol-6-yl)ethanamine], the half-inhibitory concentration (IC50) in test [1] was 7.4 µM. The compound further came in with a Kd in test [2] of 1300 nM.
On the same counts, the results for `COc1ccc2c(c1)c1cc3cnccc3c(C)c1n2CCN1CCOCC1` [Compound 320, 4-(2-(9-methoxy-5-methyl-6H-pyrido[4,3-b]carbazol-6-yl)ethyl)morpholine] are 1.9 µM and 100000 nM.
For the compound `Cc1c2ccncc2cc2c3cc(OC[C@H](C)Nc4ccccn4)ccc3n(C)c12` [Compound 269, (S)—N-(1-((5,6-dimethyl-6H-pyrido[4,3-b]carbazol-9-yl)oxy)propan-2-yl)pyridin-2-amine], the half-inhibitory concentration (IC50) in test [1] (Table G, HEK293T) is > 100 µM. The same compound displayed a Kd in test [2] of 1400 nM.
For `Cc1c2ccncc2cc2c3cc(Oc4ccnc(N)c4)ccc3n(C)c12` [Compound 303, 4-((5,6-dimethyl-6H-pyrido[4,3-b]carbazol-9-yl)oxy)pyridin-2-amine] the same measures were > 100 µM and 180 nM.
For `Cc1c2ccncc2cc2c3ccccc3n(CCN3CCOCC3)c12` [Compound 319, 4-(2-(5-methyl-6H-pyrido[4,3-b]carbazol-6-yl)ethyl)morpholine], the 50% inhibitory concentration (IC50) in test [1] stood at 12 µM. Further, the affinity in test [2], expressed as Kd, was 7800 nM.
As to `c1cc2cc3[nH]c4ccc(OCC5=NCCN5)cc4c3cc2cn1` [Compound 262, 9-((4,5-dihydro-1H-imidazol-2-yl)methoxy)-6H-pyrido[4,3-b]carbazole], the concentration for half-maximal inhibition (IC50) in test [1] (Table G, HEK293T) worked out at 6.6 µM. In test [2], this compound had a Kd of 5200 nM.
For `Cc1c2ccnc(C(=O)N[C@H](C)CN(C)C)c2cc2c3cc(OCC(N)=O)ccc3n(C)c12` [Compound 270, 9-(2-amino-2-oxo-ethoxy)-N-[(1R)-2-(dimethylamino)-1-methyl-ethyl]-5,6-dimethyl-pyrido[4,3-b]carbazole-1-carboxamide] the same measures were 0.36 µM and 510 nM.
For `CCCN[C@@H](C)COc1ccc2c(c1)c1cc3cnccc3c(C)c1n2C` [Compound 277, (2S)-1-(5,6-dimethylpyrido[4,3-b]carbazol-9-yl)oxy-N-propyl-propan-2-amine], the IC50 in test [1] came out at 1.5 µM. In test [2], this compound yielded a Kd of 20 nM.
Regarding `Cc1c2ccnc(C(=O)N[C@H](C)CN(C)C)c2cc2c3cc(OC[C@H](C)N)ccc3n(C)c12` [Compound 271, 9-[(2S)-2-aminopropoxy]-N-[(1R)-2-(dimethylamino)-1-methyl-ethyl]-5,6-dimethyl-pyrido[4,3-b]carbazole-1-carboxamide], the IC50 in test [1] (Table G, HEK293T) is > 100 µM. Also, the Kd in test [2] was 130 nM.
On the same counts, the results for `Cc1c2ccncc2cc2c3cc(OC[C@H](C)NC(N)=O)ccc3n(C)c12` [Compound 273, (S)-1-(1-((5,6-dimethyl-6H-pyrido[4,3-b]carbazol-9-yl)oxy)propan-2-yl)urea] are 0.39 µM and 140 nM.
`CCN[C@@H](C)COc1ccc2c(c1)c1cc3cnccc3c(C)c1n2C` [Compound 275, (2S)-1-(5,6-dimethylpyrido[4,3-b]carbazol-9-yl)oxy-N-ethyl-propan-2-amine]: the IC50 in test [1] (Table G, HEK293T) is 20 µM. The Kd in test [2] came to 62 nM.
For `CC(=O)N[C@@H](C)COc1ccc2c(c1)c1cc3cnccc3c(C)c1n2C` [Compound 272, (S)—N-(1-((5,6-dimethyl-6H-pyrido[4,3-b]carbazol-9-yl)oxy)propan-2-yl)acetamide] the same measures were 2 µM and 7700 nM.
In the case of `Cc1c2ccncc2cc2c3cc(Oc4ccc(N)nc4)ccc3n(C)c12` [Compound 314, 5-((5,6-dimethyl-6H-pyrido[4,3-b]carbazol-9-yl)oxy)pyridine-2-amine], in test [1] (Table G, HEK293T), the IC50 is > 60 µM. Further, the dissociation constant (Kd) in test [2] is 3000 nM.
For `Cc1c2ccncc2cc2c3cc(OCC[C@H](C)N)ccc3n(C)c12` [Compound 268, (S)-4-((5,6-dimethyl-6H-pyrido[4,3-b]carbazol-9-yl)oxy)butan-2-amine], the IC50 in test [1] (Table G, HEK293T) is 2.9 µM. Besides, the Kd in test [2] is 8700 nM.
On to `Cc1c2ccnc(C(=O)NCCN)c2cc2c3cc(F)c(F)cc3n(C)c12` [Compound 309, N-(2-aminoethyl)-8,9-difluoro-5,6-dimethyl-6H-pyrido[4,3-b]carbazole-1-carboxamide], for which the half-maximal inhibitory concentration (IC50) in test [1] (Table G, HEK293T) stood at 41 µM. The same compound gave a dissociation constant Kd in test [2] of 1400 nM.
For `COCCN[C@@H](C)COc1ccc2c(c1)c1cc3cnccc3c(C)c1n2C` [Compound 278, (2S)-1-(5,6-dimethylpyrido[4,3-b]carbazol-9-yl)oxy-N-(2-methoxyethyl)propan-2-amine] the same measures were 21 µM and 83 nM.
Turning to `Cc1c2ccncc2cc2c3cc(OC[C@H]4CCCN4)cc(F)c3n(C)c12` [Compound 265, (R)-7-fluoro-5,6-dimethyl-9-(pyrrolidin-2-ylmethoxy)-6H-pyrido[4,3-b]carbazole], in test [1] (Table G, HEK293T), the IC50 was > 100 µM. This compound also had a Kd in test [2] of 720 nM.
